Consider 2 compounds from patent US20250034169A1, “NOVEL PYRIMIDOPYRIDINE COMPOUND, PHARMACEUTICAL COMPOSITION THEREOF, AND USE THEREOF” (SUNSHINE LAKE PHARMA CO., LTD., priority 2021, published 2025).

Data set [1] in a line: Stability in human liver microsomes. It is filed as in vitro ADME. The note with it: 1 μM; for CLHep / predicted in vivo clearance / ER: human liver microsomes; for ER: slow ER < 0.3, moderate 0.3 < ER < 0.7, fast ER > 0.7; for microsomal CLint at 1 μM / half-life at 1 μM: pH 7.4, human liver microsomes 0.5 mg/mL, 37° C.; for microsomal CLint at 1 μM: read-out: CLint; for half-life at 1 μM: read-out: T1/2. As for the experimental part: (§1) Objective: To evaluate the stability of the compounds of the present invention in human and mouse liver microsomes by LC-MS/MS.
(§2) The ratio of the sample peak area to the internal standard peak area was obtained by LC/MS/MS, and the content of the compounds at 0 min was regarded as 100%, and the relative content of the compounds at each time point was calculated. The half-life of the compound was calculated by plotting the “relative content of the compound” against the “incubation time”, and the intrinsic clearance was calculated, in which the half-life and intrinsic clearance of the compound in human and mouse liver microsomes were determined in Table 3 and Table 4, respectively.

In another data set the test system is intracellular pERK. The data set is described as follows: Inhibitory effect on intracellular pERK, In-Cell Western, AGS cells. It is filed as cell-based. The conditions noted are these: Homo sapiens, read-out: Inhibitory effect on intracellular pERK, IC50.
A further data set addresses KRAS G12D-GTP & SOS1 (Homo sapiens (Human), UniProt P01116, G12D). In words: KRAS G12D/SOS1 binding experiment (HTRF). The conditions noted are these: competitive binding.
The next data set in a line: in vivo. Also noted: species or system BALB/c mice. The conditions noted are these: BALB/c, mouse, 2 mg/kg. As for the experimental part:
The inventors performed a pharmacokinetic evaluation of the compounds of the present invention in mice.
The compound of the present invention was in the form of a solution of 5% DMSO+30% PEG400+65% Saline, 10% DMSO+10% Kolliphor HS15+80% Saline, 10% DMSO+89%(25% SBE-B-CD)+(2% HCl), 20% PEG400+80% sterilize water for injection or 10% DMA+10% HS15+30% PEG400+50% sterilize water for injection, the test animals were administered, and the animals were fasted for 12 h before administration, and water was free to drink. The test animals were administered intravenously at a dose of 2 mg/kg, blood (approximately 0.15 mL) was taken intravenously at the following time points after administration: 0.083 h, 0.25 h, 0.5 h, 1.0 h, 2.0 h, 5.0 h, 7.0 h, and 24 h, EDTA-K2 was pre-added as an anticoagulant in the blood collection tube, the blood samples were centrifuged at 12,000 rpm for 2 min, then plasma was collected and stored at −20° C. or −70° C.
The plasma samples collected above were treated (after the frozen plasma thawed at room temperature, vortexed for 15 s for mixing, 10-20 μL of plasma was taken and added with 120-150 μL of acetonitrile solution containing internal standard, the mixture was vortexed for 5 min for mixing, then centrifuged at 4,000 rpm for 5 min, 100 μL of supernatant was taken, and 120-150 μL of methanol/water (v/v=1/1) was added to mix), and the compound concentration in plasma was analyzed by LC-MS/MS. The pharmacokinetic parameters of the compounds of the present invention for intravenous administration in mice are shown in Table 5.

Data set [2] in a line: Stability in mouse liver microsomes. Format: in vitro ADME. The note with it: 1 μM; for CLHep / CLin vivo / ER: mouse liver microsomes; for ER: slow ER < 0.3, moderate 0.3 < ER < 0.7, fast ER > 0.7; for microsomal CLint at 1 μM / half-life at 1 μM: pH 7.4, mouse liver microsomes 0.5 mg/mL, 37° C.; for microsomal CLint at 1 μM: read-out: CLint; for half-life at 1 μM: read-out: T1/2. As for the experimental part:
as §1, §2
(Liver microsomes are vesicles of endoplasmic reticulum, rich in cytochrome P450 enzymes.)

The target in the next data set is KRAS G12D-GTP & cRAF (Homo sapiens (Human), UniProt P01116, G12D). In words: KRAS G12D/cRAF binding experiment (HTRF). The conditions noted are these: competitive binding. On the technique in general: TR-FRET usually uses a lanthanide donor and a delayed reading to cut background.

Each structure is given as a SMILES string. Read-outs that look alike come from different tables or passages of the source.

Sequence of KRAS G12D-GTP & cRAF (P01116-2 other isoform, or with tags, fused parts or gaps G12D): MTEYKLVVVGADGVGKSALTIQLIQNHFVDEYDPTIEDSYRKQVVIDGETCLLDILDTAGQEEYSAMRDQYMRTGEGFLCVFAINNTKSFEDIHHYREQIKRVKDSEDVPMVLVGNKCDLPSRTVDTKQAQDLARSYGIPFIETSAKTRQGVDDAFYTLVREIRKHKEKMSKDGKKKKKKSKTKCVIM
Sequence of KRAS G12D-GTP & SOS1 (P01116-2 other isoform, or with tags, fused parts or gaps G12D): as above

As usually defined, the IC50 is the concentration needed to halve the response being measured. For orientation: Cmax means the peak of the concentration-time curve. A word on the Tmax: it is the time at which the peak concentration occurs. For the compound `C#Cc1nc(-c2cc(O)cc3cccc(Cl)c23)c(F)c2nc(OC[C@@]34CCCN3C[C@H](F)C4)nc(N3CC4CCC(C3)N4)c12` [Compound 67], in data set [1], the CLHep worked out at 14.5 mL/min/kg, the “predicted in vivo clearance” value is 8.5 mL/min/kg, the ER is 0.41 and the microsomal CLint at 1 μM stood at 11.6 µL/min/mg. Moreover, the half-life at 1 μM in data set [1] amounted to 119 min. The IC50 with intracellular pERK (AGS cells, 3 h incubation, In-Cell Western) is 0.4 nM. Besides, the IC50 at KRAS G12D-GTP & SOS1 was 13.5 nM. In “in vivo” (iv), this compound had an AUC(0-inf) of 3230 ng·h/mL, an AUC(0-t) of 3210 ng·h/mL, a Cmax of 4300 ng/mL and an MRT last of 45 min. Besides, in “in vivo” (iv), the Tmax amounted to 4.98 min, the Vd is 0.5 L/kg, the clearance was determined as 10 mL/min/kg and the half-life was 52.2 min. Besides, in data set [2], the CLHep was 178.5 mL/min/kg, the CLin vivo was 59.8 mL/min/kg, the ER was 0.66 and the microsomal CLint at 1 μM worked out at 45.3 µL/min/mg. Also, the half-life at 1 μM in data set [2] is 30.6 min. The compound also returned an IC50 at KRAS G12D-GTP & cRAF of 5.4 nM.
With `C#Cc1c(F)ccc2cc(O)cc(-c3nc(C#C)c4c(N5CC6CCC(C5)N6)nc(OC[C@@]56CCCN5C[C@H](F)C6)nc4c3F)c12` [Compound 23], in data set [1], the CLHep was determined as 23.0 mL/min/kg, the “predicted in vivo clearance” value was 10.9 mL/min/kg, the ER was 0.53 and the microsomal CLint at 1 μM amounted to 18.4 µL/min/mg. The half-life at 1 μM in data set [1] stood at 75.3 min. Moreover, the IC50 with intracellular pERK (AGS, 3 h) stood at 0.6 nM. Further, the AUC(0-inf) in the data set “in vivo” (mice, intravenous, read-out: AUCINF) was determined as 2160 ng·h/mL. Besides, the AUC(0-t) in the data set “in vivo” (mice, intravenous, read-out: AUClast) stood at 2140 ng·h/mL. Moreover, in “in vivo” (mice, intravenous, read-out: Cl), the clearance was determined as 16 mL/min/kg. In addition, the Cmax in “in vivo” (mice, intravenous, read-out: Cmax) was found to be 3550 ng/mL. The MRT last in “in vivo” (mice, intravenous, read-out: MRTlast) amounted to 42 min. Moreover, the half-life in “in vivo” (mice, intravenous, read-out: T1/2 (converted)) was 50.4 min. The Tmax in “in vivo” (mice, intravenous, read-out: Tmax) came out at 4.98 min. For the same compound, the Vd in the data set “in vivo” (mice, intravenous, read-out: Vss) is 0.69 L/kg. Further, in data set [2], the CLHep was 187.4 mL/min/kg, the CLin vivo is reported as 60.8 mL/min/kg, the ER is reported as 0.68 and the microsomal CLint at 1 μM was found to be 47.6 µL/min/mg. In addition, the half-life at 1 μM in data set [2] was 29.1 min.
